# According to ChEMBL document CHEMBL1671617, “Correlation of antimicrobial resistance with beta-lactamases, the OmpA-like porin, and efflux pumps in clinical isolates of Acinetobacter baumannii endemic to New York City” (2008):
# Legend:
# Type in all cases: functional
# [1] = test system: Acinetobacter baumannii; assay: Antimicrobial activity against ISAba1 linked with the blaOXA-51-type beta-lactamase harboring Acinetobacter baumannii alpha clonal group isolate 1 expressing ampC, ompA, adeB, adeM by Etest method
# [2] = test system: Acinetobacter baumannii; assay: Antimicrobial activity against Acinetobacter baumannii alpha clonal group isolate 2 expressing ampC, ompA, adeB, adeM, aacC1, aadA1 by Etest method
# [3] = test system: Acinetobacter baumannii; assay: Antimicrobial activity against Acinetobacter baumannii alpha clonal group isolate 3 expressing ampC, ompA, adeB, adeM, aacC1, aadA1 by Etest method
# [4] = test system: Acinetobacter baumannii; assay: Antimicrobial activity against Acinetobacter baumannii alpha clonal group isolate 4 expressing ampC, ompA, adeB, adeM, aacC1, aadA1 by Etest method
# [5] = test system: Acinetobacter baumannii; assay: Antimicrobial activity against Acinetobacter baumannii alpha clonal group isolate 5 expressing ampC, ompA, adeB, adeM, aacC1, aadA1 by Etest method
# [6] = test system: Acinetobacter baumannii; assay: Antimicrobial activity against ISAba1 linked with the blaOXA-51-type beta-lactamase harboring Acinetobacter baumannii alpha clonal group isolate 6 expressing ampC, ompA, adeB, adeM, aacC1, aadA1 by Etest method
# [7] = test system: Acinetobacter baumannii; assay: Antimicrobial activity against ISAba1 linked with the blaOXA-51-type beta-lactamase harboring Acinetobacter baumannii alpha clonal group isolate 7 expressing ampC, ompA, adeB, adeM, blaSHV-5 by Etest method
# [8] = test system: Acinetobacter baumannii; assay: Antimicrobial activity against ISAba1 linked with the blaOXA-51-type beta-lactamase harboring Acinetobacter baumannii alpha clonal group isolate 8 expressing ampC, ompA, adeB, adeM, aacC1, aadA1 by Etest method
# [9] = test system: Acinetobacter baumannii; assay: Antimicrobial activity against ISAba1 linked with the blaOXA-51-type beta-lactamase harboring Acinetobacter baumannii beta clonal group isolate 9 expressing ampC, ompA, adeB, adeM by Etest method
# [10] = test system: Acinetobacter baumannii; assay: Antimicrobial activity against ISAba1 linked with the blaOXA-51-type beta-lactamase harboring Acinetobacter baumannii beta clonal group isolate 10 expressing ompA, adeB, adeM, aacA4, blaSHV-5 by Etest method
# [11] = test system: Acinetobacter baumannii; assay: Antimicrobial activity against ISAba1 linked with the blaOXA-51-type beta-lactamase harboring Acinetobacter baumannii beta clonal group isolate 11 expressing ompA, adeB, adeM, blaSHV-5 by Etest method
# [12] = test system: Acinetobacter baumannii; assay: Antimicrobial activity against ISAba1 linked with the blaOXA-51-type beta-lactamase harboring Acinetobacter baumannii beta clonal group isolate 12 expressing ompA, adeB, adeM, aacA4, aacC2, blaSHV-5 by Etest method
# [13] = test system: Acinetobacter baumannii; assay: Antimicrobial activity against ISAba1 linked with the blaOXA-51-type beta-lactamase harboring Acinetobacter baumannii beta clonal group isolate 13 expressing ompA, adeB, adeM, aacA4, blaSHV-5 by Etest method
# [14] = test system: Acinetobacter baumannii; assay: Antimicrobial activity against ISAba1 linked with the blaOXA-51-type beta-lactamase harboring Acinetobacter baumannii beta clonal group isolate 14 expressing ompA, adeB, adeM, aacA4, blaSHV-5 by Etest method
# [15] = test system: Acinetobacter baumannii; assay: Antimicrobial activity against ISAba1 linked with the blaOXA-51-type beta-lactamase harboring Acinetobacter baumannii beta clonal group isolate 15 expressing ompA, adeB, adeM, aacA4, blaSHV-5 by Etest method
# [16] = test system: Acinetobacter baumannii; assay: Antimicrobial activity against ISAba1 linked with the blaOXA-51-type beta-lactamase harboring Acinetobacter baumannii beta clonal group isolate 16 expressing ompA, adeB, adeM, aacA4, blaSHV-5 by Etest method
# [17] = test system: Acinetobacter baumannii; assay: Antimicrobial activity against ISAba1 linked with the blaOXA-51-type beta-lactamase harboring Acinetobacter baumannii beta clonal group isolate 17 expressing ompA, adeB, adeM, aacA4, blaSHV-5 by Etest method
# [18] = test system: Acinetobacter baumannii; assay: Antimicrobial activity against ISAba1 linked with the blaOXA-51-type beta-lactamase harboring Acinetobacter baumannii beta clonal group isolate 18 expressing ompA, adeB, adeM, aacA4, blaSHV-5 by Etest method
# [19] = test system: Acinetobacter baumannii; assay: Antimicrobial activity against ISAba1 linked with the blaOXA-51-type beta-lactamase harboring Acinetobacter baumannii zeta clonal group isolate 19 expressing ampC, ompA, adeB, adeM, aacC2 by Etest method
# [20] = test system: Acinetobacter baumannii; assay: Antimicrobial activity against ISAba1 linked with the blaOXA-51-type beta-lactamase harboring Acinetobacter baumannii zeta clonal group isolate 20 expressing ampC, ompA, adeB, adeM, aacC2 by Etest method
# [21] = test system: Acinetobacter baumannii; assay: Antimicrobial activity against ISAba1 linked with the blaOXA-51-type beta-lactamase harboring Acinetobacter baumannii zeta clonal group isolate 21 expressing ampC, ompA, adeB, adeM, aacC2, blaSHV-5 by Etest method
# [22] = test system: Acinetobacter baumannii; assay: Antimicrobial activity against ISAba1 linked with the blaOXA-51-type beta-lactamase harboring Acinetobacter baumannii zeta clonal group isolate 22 expressing ampC, ompA, adeB, adeM, aadA1, aacA4, aacC2, blaSHV-5 by Etest method
# [23] = test system: Acinetobacter baumannii; assay: Antimicrobial activity against ISAba1 linked with the blaOXA-51-type beta-lactamase harboring Acinetobacter baumannii zeta clonal group isolate 23 expressing ampC, ompA, adeB, adeM, aadA1, aacA4, aacC2, aphA6 by Etest method
# [24] = test system: Acinetobacter baumannii; assay: Antimicrobial activity against ISAba1 linked with the blaOXA-51-type beta-lactamase harboring Acinetobacter baumannii zeta clonal group isolate 24 expressing ampC, ompA, adeB, adeM, aadA1, aacA4, aacC2, blaSHV-5 by Etest method
# [25] = test system: Acinetobacter baumannii; assay: Antimicrobial activity against ISAba1 linked with the blaOXA-51-type beta-lactamase harboring Acinetobacter baumannii zeta clonal group isolate 25 expressing ampC, ompA, adeB, adeM, aadA1, aacA4, aacC2, blaSHV-5 by Etest method
# [26] = test system: Acinetobacter baumannii; assay: Antimicrobial activity against ISAba1 linked with the blaOXA-51-type beta-lactamase harboring Acinetobacter baumannii zeta clonal group isolate 26 expressing ampC, ompA, adeB, adeM, aadA1, aacA4, aacC2, blaSHV-5 by Etest method
# [27] = test system: Acinetobacter baumannii; assay: Antimicrobial activity against Acinetobacter baumannii lambda clonal group isolate 27 expressing ampC, ompA, adeB, adeM, aadB, aadA1 by Etest method
# [28] = test system: Acinetobacter baumannii; assay: Antimicrobial activity against ISAba1 linked with the blaOXA-51-type beta-lactamase harboring Acinetobacter baumannii lambda clonal group isolate 28 expressing ampC, ompA, adeM, aadB, aadA1 by Etest method
# [29] = test system: Acinetobacter baumannii; assay: Antimicrobial activity against ISAba1 linked with the blaOXA-51-type beta-lactamase harboring Acinetobacter baumannii lambda clonal group isolate 29 expressing ampC, ompA, adeM, aadB, aadA1 by Etest method
# [30] = test system: Acinetobacter baumannii; assay: Antimicrobial activity against ISAba1 linked with the blaOXA-51-type beta-lactamase harboring Acinetobacter baumannii lambda clonal group isolate 30 expressing ampC, ompA, adeB, adeM, aadB, aadA1 by Etest method
# [31] = test system: Acinetobacter baumannii; assay: Antimicrobial activity against Acinetobacter baumannii nu clonal group isolate 31 expressing ampC, ompA, adeB, adeM, aadB, aadA2 by Etest method
# [32] = test system: Acinetobacter baumannii; assay: Antimicrobial activity against Acinetobacter baumannii nu clonal group isolate 32 expressing ampC, ompA, adeB, adeM, aadB, aadA2 by Etest method
# [33] = test system: Acinetobacter baumannii; assay: Antimicrobial activity against Acinetobacter baumannii nu clonal group isolate 33 expressing ampC, ompA, adeB, adeM by Etest method
# [34] = test system: Acinetobacter baumannii; assay: Antimicrobial activity against Acinetobacter baumannii nu clonal group isolate 34 expressing ampC, ompA, adeB, adeM by Etest method
# [35] = test system: Acinetobacter baumannii; assay: Antimicrobial activity against Acinetobacter baumannii eta clonal group isolate 35 expressing ampC, ompA, adeB, adeM by Etest method
# [36] = test system: Acinetobacter baumannii; assay: Antimicrobial activity against Acinetobacter baumannii eta clonal group isolate 36 expressing ampC, ompA, adeB, adeM by Etest method
# [37] = test system: Acinetobacter baumannii; assay: Antimicrobial activity against Acinetobacter baumannii unique clonal group isolate 37 expressing ampC, ompA, adeB, adeM by Etest method
# [38] = test system: Acinetobacter baumannii; assay: Antimicrobial activity against Acinetobacter baumannii unique clonal group isolate 38 expressing ampC, ompA, adeB, adeM by Etest method
# [39] = test system: Acinetobacter baumannii; assay: Antimicrobial activity against Acinetobacter baumannii unique clonal group isolate 39 expressing ampC, ompA, adeM by Etest method
# [40] = test system: Acinetobacter baumannii; assay: Antimicrobial activity against ISAba1 linked with the blaOXA-51-type beta-lactamase harboring Acinetobacter baumannii unique clonal group isolate 40 expressing ampC, ompA, adeB, adeM, aadA1, aacA4, aacC2, blaSHV-5 by Etest method
structure (smiles),measurement,setting,value
C[C@@H](O)[C@H]1C(=O)N2C(C(=O)O)=C(SCCNC=N)C[C@H]12 [IMIPENEM ANHYDROUS],MIC,[1],2 µg/mL
same,MIC,[2],0.38 µg/mL
same,MIC,[3],0.38 µg/mL
same,MIC,[4],0.38 µg/mL
same,MIC,[5],0.38 µg/mL
same,MIC,[6],3 µg/mL
same,MIC,[7],4 µg/mL
same,MIC,[8],6 µg/mL
same,MIC,[9],12 µg/mL
same,MIC,[10],16 µg/mL
same,MIC,[11],> 32 µg/mL
same,MIC,[12],32 µg/mL
same,MIC,[13],> 16 µg/mL
same,MIC,[14],> 16 µg/mL
same,MIC,[15],> 16 µg/mL
same,MIC,[16],> 16 µg/mL
same,MIC,[17],> 16 µg/mL
same,MIC,[18],12 µg/mL
same,MIC,[19],1 µg/mL
same,MIC,[20],1 µg/mL
same,MIC,[21],6 µg/mL
same,MIC,[22],16 µg/mL
same,MIC,[23],> 32 µg/mL
same,MIC,[24],> 1.5 µg/mL
same,MIC,[25],> 1.5 µg/mL
same,MIC,[26],> 1.5 µg/mL
same,MIC,[27],4 µg/mL
same,MIC,[28],16 µg/mL
same,MIC,[29],16 µg/mL
same,MIC,[30],8 µg/mL
same,MIC,[31],0.25 µg/mL
same,MIC,[32],0.25 µg/mL
same,MIC,[33],0.25 µg/mL
same,MIC,[34],0.25 µg/mL
same,MIC,[35],0.25 µg/mL
same,MIC,[36],0.25 µg/mL
same,MIC,[37],0.5 µg/mL
same,MIC,[38],0.19 µg/mL
same,MIC,[39],0.25 µg/mL
same,MIC,[40],> 32 µg/mL
